This is an account of results in patent US20070238141A1, “Method for measuring kinase activity” (SYSMEX CORPORATION, priority 2006, published 2007).

Common to all, as to assay type: biochemical, human
Test [1] relates to receptor tyrosine kinase present in a cell membrane of MDA-MB231. The test can be described thus: Influence of inhibitor on kinase activity of receptor tyrosine kinase, GST-poly (Glu,Tyr) substrate, Western blotting, sample i. The conditions noted are these: reaction solution containing 100 μM inhibitor, C (no inhibitor) = 100%, FIG. 8. The method, then:
(§1) A culturing cell (MDA-MB231) derived from a breast cancer was cultured to 80% confluent (about 10^7 cells) in a 225 cm^2 flask. This cultured cell and 1 ml of a cell treating solution (containing 20 mM HEPES pH7.4, 0.2% PI, 10% glycerol, 200 μM Na3VO4, and 50 mM NaF) were mixed, and a cell membrane was destructed by pressurizing using a pestle to prepare a cell solution. The resulting cell solution was centrifuged, and the supernatant was discarded. A precipitate and a cell membrane solubilizing solution (containing 20 mM HEPES pH7.4, 1% NP40, 0.2% PI, 10% glycerol, 200 μM Na3VO4, and 50 mM NaF) were mixed, a cell membrane was solubilized by pressurizing using a pestle, and this was centrifuged to recover the supernatant. This supernatant was used as a sample for a reaction in the following enzyme reaction. Similarly, a sample for a reaction solution was prepared from MDA-MB468 and SKBr3 which are a cultured cell derived from a breast cancer, respectively. Herein, a sample prepared from MDA-MB231 is designated as a sample for reaction “i”, a sample prepared from MDA-MB468 is designated as a sample for reaction “ii”, and a sample prepared from SKBr3 is designated as a sample for reaction “iii”. All samples for a reaction were prepared so that a concentration of a contained protein became 0.8 mg/ml.
(§2) Each 25μ of samples for a reaction were accommodated in four tubes. […]
(§3) Using these “PD”, “W”, “AG” and “C”, Western blotting was performed according to the same method as that of Example 6. Results are shown by a graph in which a fluorescent intensity of a band of a phosphorylated GST-poly (Glu,Tyr) fused protein detected in a fluorescent photograph of Western blotting was digitalized using an exclusive use analyzing software. […]
(A western blot detects proteins with antibodies after separation by electrophoresis.)

Test [2] deals with receptor tyrosine kinase present in a cell membrane of MDA-MB468. The experiment in a line: Influence of inhibitor on kinase activity of receptor tyrosine kinase, GST-poly (Glu,Tyr) substrate, Western blotting, sample ii. To be noted: reaction solution containing 100 μM inhibitor, C (no inhibitor) = 100%, FIG. 9. The method, then: as §1, §2, §3
Test [3] deals with receptor tyrosine kinase present in a cell membrane of SKBr3. The experiment in a line: Influence of inhibitor on kinase activity of receptor tyrosine kinase, GST-poly (Glu,Tyr) substrate, Western blotting, sample iii. The conditions noted are these: reaction solution containing 100 μM inhibitor, C (no inhibitor) = 100%, FIG. 10. Here is the method:
as §1, §2, §3

For test [4] the test system is unchanged. The test can be described thus: Influence of ligand on kinase activity of receptor tyrosine kinase, GST-poly (Glu,Tyr) substrate, Western blotting. The conditions noted are these: reaction solution containing 100 ng of Heregulin (H) vs no ligand (C); SKBr3 membrane sample; FIG. 11. Here is the method:
A culturing cell (MDA-MB231) derived from a breast cancer was cultured to 80% confluent (about 10^7 cells) in a 225 cm^2 flask. This cultured cell and 1 ml of a cell treating solution (containing 20 mM HEPES pH7.4, 0.2% PI, 10% glycerol, 200 μM Na3VO4, and 50 mM NaF) were mixed, and a cell membrane was destructed by pressurizing using a pestle to prepare a cell solution. The resulting cell solution was centrifuged, and the supernatant was discarded. A precipitate and a cell membrane solubilizing solution (containing 20 mM HEPES pH7.4, 1% NP40, 0.2% PI, 10% glycerol, 200 μM Na3VO4, and 50 mM NaF) were mixed, a cell membrane was solubilized by pressurizing using a pestle, and this was centrifuged to recover the supernatant. This supernatant was used as a sample for a reaction in the following enzyme reaction. Similarly, a sample for a reaction solution was prepared from MDA-MB468 and SKBr3 which are a cultured cell derived from a breast cancer, respectively. […]
Using these “H” and “C”, Western blotting was performed according to the same method as that of Example 6. And, a fluorescent intensity of a band of a phosphorylated GST-poly (Glu,Tyr) fused protein detected in a fluorescent photograph was digitalized using an exclusive use analyzing software. […]

As to `COc1cc2ncnc(Nc3cccc(Cl)c3)c2cc1OC` [AG1478], the “fluorescent intensity of band of phosphorylated GST-poly (Glu,Tyr) fused protein compared with C” value (“fluorescent intensity of band … compared with C” below) in test [1] was “not inhibited”; in test [2] it was “reduced”; in test [3], “reduced”.
On to `CNc1cc2c(Nc3cccc(Br)c3)ncnc2cn1` [PD158780], for which the “fluorescent intensity of band … compared with C” value in test [1] is “not inhibited”; in test [2], “reduced”; in test [3], “reduced”.
On to `COc1cc2ncnc(Nc3ccc(OCc4ccccc4)cc3)c2cc1OC` [W4557], for which the results for the “fluorescent intensity of band … compared with C” value in test [1], in test [2] and in test [3] were “not inhibited”, “reduced” and “reduced”, respectively.
In the case of Heregulin, in test [4], the “fluorescent intensity of band … compared with C” value is reported as “higher”.
